One assay concerns OCI-Ly3 cells. As to the kind of experiment: IL6 and IL10 mRNA, qRT-PCR. The note with it: for IL6 and IL10 mRNA levels: OCI-Ly3, 1 μM, 24 hours, result in words; for IL6 mRNA levels (normalized) / IL10 mRNA levels (normalized): Suppl Fig. 5C. It is filed as cell-based, human. The procedure: Total RNA extraction from cell lines was performed using RNeasy Plus Mini Kit (Qiagen, Cat# 74136). […]
Kit. RNA was transcribed into cDNA using High-Capacity cDNA Reverse Transcription Kit (Applied Biosystems, Cat# 4368814) according to manufacturer’s instructions. RT-PCR was performed using TaqMan Universal PCR Master Mix (Applied Biosystems, Cat# 4304437) and run on a StepOnePlus Real-Time PCR machine (Applied Biosystems). The following probes from ThermoFisher Scientific were used for qRT-PCR: IL2 TaqMan probe Hs00174114, IL6 TaqMan
On the technique in general: Quantitative PCR measures a nucleic acid by following its amplification.

Another assay deals with T1, BCL10-MALT1 interaction (Homo sapiens, UniProt Q9UDY8).
T1 construct: GST-tagged recombinant human full-length MALT1 protein in solution; purchased Novus Biologicals H00010892-P01 (MALT1); NBP1-99064 (BCL10)
The assay is described as follows: ELISA-based BCL10-MALT1 protein-protein interaction assay. The note with it: MALT1 preincubated 1 hour with compound; read-out: IC50, inhibition of MALT1 binding to immobilized BCL10. From the text:
A 96-well ELISA was employed, whereby His-tagged full-length BCL10 protein was immobilized in wells and exposed to GST-tagged recombinant human full-length MALT1 protein in solution, followed by detection with anti-MALT1 antibody. Details are provided in Supplemental Methods.
(§1) Plasmids. Plasmids for transfection were verified with Sanger Sequencing. Unless otherwise indicated, plasmids were made by subcloning cDNA fragments from constructs described in previous publications, as noted, and/or site directed mutagenesis. Plasmids in the pcDNA3 or pcDNA3.1 backbone include HA-MALT1(isoform B) (2), HA-MALT1(DD+Ig1-2) (aa 1- […]
MALT1(Ig1-2) V189R, HA-MALT1(Ig1-2) W203_Q205delinsAAA (Vector Builder), HA-MALT1(Ig1-2) H257_Q259delinsAAA (Vector Builder), HA-MALT1(Ig1-2) […]
ELISA-based protein-protein interaction assay. […] The plate was read at 450 nm using a spectrophotometer (Molecular Devices SpectraMax i3). […]
Cytokine ELISAs. Cytokines in cell culture supernatants were measured 20-24h after treatment with 0, 0.01, 0.03, 0.1, 0.3, 1, or 3 µM of compounds using the following ELISA kits according to the manufacturer’s instructions: Human IL-2 ELISA (BioLegend Cat# 431804), Human IL-6 ELISA (BioLegend Cat# 430504), and Human IL-10 ELISA (BioLegend Cat# 430604). […]
(§2) Mouse T-Activator CD3/C28. Supernatant was collected at 24 hours and mouse IL-2 levels were analyzed via ELISA (R&D Systems, Cat# DY402-05).
In general terms: An ELISA detects its analyte on a solid surface through an enzyme-linked reagent.

For assay [1], the system named is IL-2 secretion from primary mouse splenocytes. As to the kind of experiment: Secreted IL-2 ELISA, stimulated primary splenocytes. In kind it is cell-based. The note with it: for IL-2 protein level (% of control): Suppl Fig. 4B.
Excerpt: as §1
MALT1(Ig1-2) V189R, HA-MALT1(Ig1-2) W203_Q205delinsAAA (Vector Builder), HA-MALT1(Ig1-2) H257_Q259delinsAAA (Vector Builder), HA-MALT1(Ig1-2)
P254_P256delinsAAA (Vector Builder), HA-MALT1(Ig1-2) H269_T271delinsAAA (Vector Builder), HA-MALT1(Ig1-2) K272_L274delinsAAA (Vector Builder), HA-MALT1 V189R (Vector Builder), HA-MALT1 V81R, HA-BCL10 (GeneCopoeia, Cat# M0769-M07), HA-BCL10 E53R, Myc-BCL10 (previously called CIPER) (3), Myc-BCL10 E53R, Myc-RICK (4), Myc-MAVS (subcloned from FLAG-MAVS (5)), and empty vector pCDNA3.1HA as a control.
ELISA-based protein-protein interaction assay. On a high-binding 96-well ELISA microplate (Greiner Cat# 655061), 100 ng of His-tagged recombinant human full-length BCL10 protein (Novus Cat# NBP1-99064) or in 100 µl PBS was allowed to adhere overnight at 4°C. The plate was blocked with 5% BSA in PBS for 1 hour at room temperature. After washing twice with PBS-T, a mixture of 100 ng of GST-tagged recombinant human full-length MALT1 protein (Novus Biologicals Cat# H00010892-P01) and compound that was preincubated for 1 hour in 100 μl PBS was added to the plate for 1 hour at room temperature. After washing three times with PBS-T, anti-MALT1 antibody (Cell Signaling Technology, Cat# 2494) in 5% BSA in PBS was added at 1:1000 dilution for 1 hour at room temperature. After washing three times with PBS-T, HRP-conjugated secondary antibody in 5% BSA in PBS was added at 1:5000 dilution for 1 hour at room temperature. After washing three times with PBS-T, 100 µl of 3,3’,5,5’-tetramethylbenzidine (TMB) substrate solution (Thermo Scientific, Cat# 34028) was added for up to 15 minutes, and 100 µl of 2 M sulfuric acid was added to stop the reaction. The plate was read at 450 nm using a spectrophotometer (Molecular Devices SpectraMax i3). The MyoD1/ID ELISA was performed as above except that 100 ng of recombinant human His-tagged MyoD1 (Proteintech, Cat# Ag13186) was plated overnight at 4°C prior to the addition of 100 ng of recombinant human GST-ID1 (Proteintech, Cat# Ag13359) preincubated to with compounds. The anti-GST antibody (clone 26H1, Cell signaling Technology, Cat #2624) was used to detect bound ID1.
Cytokine ELISAs. Cytokines in cell culture supernatants were measured 20-24h after treatment with 0, 0.01, 0.03, 0.1, 0.3, 1, or 3 µM of compounds using the following ELISA kits according to the manufacturer’s instructions: Human IL-2 ELISA (BioLegend Cat# 431804), Human IL-6 ELISA (BioLegend Cat# 430504), and Human IL-10 ELISA (BioLegend Cat# 430604). TMD8 and OCI-Ly3 cells were treated with specific doses of compounds in serum-free media for 20 hours. Jurkat T cells were pretreated with specific doses of compounds for 8 hours in serum-free media, then stimulated with PMA/ionomycin for 16 hours prior to the collection of supernatants.
Mouse splenocytes were isolated from spleens of C57/BL6 mice by passing spleens through a 70 micron filter followed by red blood cell lysis using ACK lysing buffer (Quality Biologics, Cat# 118-156-101). […]
as §2

In general, IC50 refers to the concentration that gives 50% inhibition.

Molecules are shown by their SMILES. “And” between values parts separate entries of the source, which are not always exact repeats. Identical values can stand only once.

T1 sequence (Q9UDY8 1-813 isoform Q9UDY8-2): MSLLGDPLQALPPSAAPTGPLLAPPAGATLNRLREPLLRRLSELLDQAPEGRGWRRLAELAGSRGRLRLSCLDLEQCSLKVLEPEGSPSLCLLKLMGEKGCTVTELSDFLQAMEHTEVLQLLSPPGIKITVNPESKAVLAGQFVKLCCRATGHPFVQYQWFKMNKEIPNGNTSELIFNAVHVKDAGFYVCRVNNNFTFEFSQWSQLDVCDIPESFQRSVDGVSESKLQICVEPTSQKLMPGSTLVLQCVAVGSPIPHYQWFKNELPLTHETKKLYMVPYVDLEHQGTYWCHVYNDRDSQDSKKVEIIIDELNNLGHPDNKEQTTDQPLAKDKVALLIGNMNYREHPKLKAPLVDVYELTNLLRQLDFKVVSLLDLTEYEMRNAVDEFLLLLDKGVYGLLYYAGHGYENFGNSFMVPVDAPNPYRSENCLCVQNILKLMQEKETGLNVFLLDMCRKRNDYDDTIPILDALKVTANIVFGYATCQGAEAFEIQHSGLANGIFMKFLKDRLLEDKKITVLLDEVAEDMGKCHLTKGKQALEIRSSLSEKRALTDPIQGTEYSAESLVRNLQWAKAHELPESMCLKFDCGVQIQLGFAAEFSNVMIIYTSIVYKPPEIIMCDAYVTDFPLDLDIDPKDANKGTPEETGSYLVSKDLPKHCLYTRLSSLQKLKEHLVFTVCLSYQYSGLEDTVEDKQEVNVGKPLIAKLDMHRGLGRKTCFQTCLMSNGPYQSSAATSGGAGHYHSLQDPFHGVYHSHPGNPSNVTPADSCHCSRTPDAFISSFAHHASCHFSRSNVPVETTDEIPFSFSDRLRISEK

Turning to `COc1ccc(CNS(=O)(=O)c2ccc(Cc3ccc(S(=O)(=O)NCc4ccc(OC)cc4)cc3)cc2)cc1` [M1i-124d1], in the assay with OCI-Ly3 cells, the “IL6 and IL10 mRNA levels” value was “significantly decrease IL6 and IL10 mRNA levels”; the “IL6 mRNA levels (normalized)” value is 0.61 and 0.76 and 0.58 and 0.67 and 0.68; the “IL10 mRNA levels (normalized)” value was 0.5473 and 0.5 and 0.74 and 0.4125 and 0.4002 and 0.6402. For the same molecule, the half-inhibitory concentration (IC50) at BCL10-MALT1 interaction turned out to be 34 µM.

Regarding `O=S(=O)(NCc1ccc2c(c1)OCO2)c1ccc(Cc2ccc(S(=O)(=O)NCc3ccc4c(c3)OCO4)cc2)cc1` [M1i-124], in assay [1] (1 μM, PMA/Iono or anti-CD3/CD28, result in words), the “IL-2 secretion from primary mouse splenocytes” value is reported as “reduced IL-2 secretion”. In addition, the “IL-2 protein level (% of control)” value in assay [1] (CD3/CD28 treated) was 50.4652 % of control and 31.9351 % of control and 38.7736 % of control. For the same molecule, in assay [1] (PMA/Iono treated), the “IL-2 protein level (% of control)” value was 60.6294 % of control and 65.2902 % of control and 36.6638 % of control. In addition, in the assay on OCI-Ly3 cells, the “IL6 and IL10 mRNA levels” value was “significantly decrease IL6 and IL10 mRNA levels”; the “IL6 mRNA levels (normalized)” value is 0.63 and 0.57 and 0.56 and 0.54 and 0.48 and 0.61; the “IL10 mRNA levels (normalized)” value was 0.7074 and 0.77 and 0.73 and 0.8 and 0.4913 and 0.4249 and 0.7438. Besides, the IC50 at BCL10-MALT1 interaction came to 16 µM.

`CN1CCCC(CN2c3ccccc3Sc3ccccc32)C1` (stereo not shown) [Mepazine, mepazine, reference compound]: the “IL-2 protein level (% of control)” value was 96.0182 % of control and 76.5551 % of control in assay [1] (CD3/CD28 treated, 1 uM); 66.5904 % of control and 66.2291 % of control in assay [1] (PMA/Iono treated, 1 uM).

The values above are taken from publication PMC11996864, “A small-molecule inhibitor of BCL10-MALT1 interaction abrogates progression of diffuse large B cell lymphoma” (The Journal of Clinical Investigation, 2025).
